Measured values published in patent publication US20240026295A1, “USE OF COMPOUND FOR IMPROVING TRANSPLANTATION EFFICIENCY OF HUMAN HEMATOPOIETIC STEM CELLS” (EDIGENE (GUANGZHOU) INC., priority 2020, published 2024).
Structures can show the parent of a compound that is named as a salt.

What was measured:
[1] = tested on: surface protein CD184 expression in CD34+HSPCs; assay: Preliminary screening: CD184 mean fluorescence intensity by flow cytometry; assay type: cell-based, human; settings: 16 hours treatment, three concentrations
Procedure: (§1) According to the counting results in Example 1, 5×10^4CD34+ cells were added to each well of a 24-well plate, and the cells were cultured with 1 ml of complete medium per well for 24 hours.
(§2) The next day, the compound was dissolved in DMSO and mixed, and then diluted with PBS to a specific concentration (see Table 3). An equal volume of 10 μl of the diluted compound per well was added to the cell culture medium, mixed well, and placed in an incubator for 16 hours.
(§3) On the third day, an antibody pre-mixed solution was prepared: a solution of PBS+0.5% BSA was pre-mixed with fluorescent antibody BV510 conjugated anti-human CD34 (Biolegend clone 581), FITC conjugated anti-human CD90 (Biolegend, clone 5E10) and APCCy7 conjugated anti-human CD45RA (Biolegend, clone HI100), 50 μl/ml of each antibody was added, and stored in the dark.
(§4) Cells were collected into centrifuge tubes, centrifuged at 400 g for 5 minutes. The supernatant was removed, added with 50 μl of antibody pre-mixed solution (containing 2.5 μl of each antibody) in each sample, resuspended and incubated at 4° C. for 20 minutes in the dark. The cells were washed with 1 ml of PBS added to each tube, centrifuged at 400 g for 5 minutes and resuspended with 50 μl of PBS+0.5% BSA solution. 2.5 μl of PE-conjugated anti-CD184 antibody (Biolegend, clone 12G5) was added to each sample, incubated at 37° C. for 30 minutes, washed, and stained with 7AAD to identify cell viability. Flow cytometry (Beckman Coulter CytoFLEX) was used to detect cell surface fluorescence, and the mean fluorescence intensity (MFI) and positive ratio of CD184 expression in HSPCs and LT-HSCs were analyzed, respectively. Among them, HSPCs are CD34+ cells, and LT-HSCs are CD34+CD90+CD45RA− cells.
(1) Preliminary screening of compounds: 139 compounds were used for preliminary screening, among which 89 compounds were screened in rounds 1-5, and 50 compounds were screened in rounds 6-9. During the in vitro culture of CD34+HSPCs, they were treated for 16 hours by adding three concentrations of compounds to the complete medium. Then the mean fluorescence intensity of surface protein CD184 expression was detected by flow cytometry. 1.

[2] = tested on: surface protein CD184 expression in CD34+HSPCs; assay: Secondary screening: CD184 mean fluorescence intensity, ratio to control group; assay type: cell-based, human; settings: high concentration, 16 hours treatment, FIG. 2
Procedure: as §1, §2, §3, §4
(2) Secondary screening of compounds: the 13 compounds obtained from the preliminary screening were further verified using three concentrations of high, medium and low, with three replicates for each concentration. After 16 hours of treatment with the above-mentioned compounds, the average fluorescence intensity of surface protein CD184 expression was detected by flow cytometry. 2. Wherein, the data in the figure are the ratio of the mean CD184 fluorescence intensity of each group to the control group (Mock). (M344 is the positive control group; Mock is the negative control group untreated during culture.)

[3] = tested on: NPG (NOD-scid Il2rg−/−) immunodeficient mice; assay: Transplantation of treated human CD34+HSPCs into irradiated NPG mice; assay type: in vivo, mouse; settings: 17 weeks after transplantation; for differentiation of treated HSPCs in bone marrow, spleen and peripheral blood: FIG. 5B to 5D; for transplantation efficiency of cells in the bone marrow of NPG mice (hCD45+/(hCD45+ + mCD45+)×100%): HSPCs treated ex vivo, Mock group 64.7%
Description: The transplantation efficiency of hematopoietic stem cells refers to the ability of hematopoietic stem cells from human donor to effectively migrate to the recipient's bone marrow after intravenous injection into the recipient, maintain growth in the bone marrow microenvironment, and play a role in repopulating of the hematopoietic system. To verify the transplantation efficiency of hematopoietic stem cells in the experiment, human hematopoietic stem cells are transplanted into an immune-deficient mouse model, the blood and immune organs of the recipient mice are detected by flow cytometry, and the content of human donor cells (hCD45 positive cell ratio) is analyzed.
Human CD34+HSPCs treated with Colchicine, Vinblastine sulfate or Lexibulin for a short time, or those in the control group were transplanted into NPG (NOD-scid Il2rg−/−) immunodeficient mice irradiated with 1.0 Gy, 8 mice in each group. 17 weeks after transplantation, cell transplantation efficiency in mouse bone marrow, and distribution proportion of human T cells labeled with human CD3, CD4 and CD8 antibodies, myeloid cells labeled with human CD33 antibody, B cells labeled with CD19 antibody, NK cells labeled with human CD56 antibody, and hematopoietic stem and progenitor cells labeled with human CD34 antibody in bone marrow, peripheral blood, and spleen were detected. The results are shown in FIG. 5A to FIG. 5D, where the transplantation efficiency=hCD45^+proportion/(hCD45^+proportion+mCD45^+proportion)×100%

In the case of COC(=O)Nc1nc2ccc(C(=O)c3cccs3)cc2[nH]1 [Nocodazole], the “expression of CD184 in CD34+HSPCs (mean fluorescence intensity)” value (“expression of CD184 in CD34+HSPCs” for short) [1] is reported as “can enhance the expression of CD184”.
O=C(Nc1ccc2[nH]nc(-c3ccncc3)c2c1)[C@@H]1CCN(CC(=O)N2CCN(c3ccc(-c4ncccn4)cc3)CC2)C1 [SCH772984] was tested, and the “expression of CD184 in CD34+HSPCs” value [1] was “can enhance the expression of CD184”.
For O=C(Nc1cccc2cccnc12)c1ccc(N2C(=O)[C@@H]3[C@H](C2=O)[C@@H]2C=C[C@H]3C2)cc1 [IWR-1-endo], the “expression of CD184 in CD34+HSPCs” value [1] was “can enhance the expression of CD184”.
In the case of O=C(NC[C@H](O)CO)c1ccncc1Nc1ccc(I)cc1F [Pimasertib], the “expression of CD184 in CD34+HSPCs” value [1] is reported as “can enhance the expression of CD184”.
Cc1c[nH]c(-c2cnc(NCCNc3ccc(C#N)cn3)nc2-c2ccc(Cl)cc2Cl)n1 [CHIR99021] was tested, and the “expression of CD184 in CD34+HSPCs” value [1] was “can enhance the expression of CD184”.
For COc1cc2c(c(OC)c1OC)-c1ccc(OC)c(=O)cc1[C@@H](NC(C)=O)CC2 [Colchicine], the “expression of CD184 in CD34+HSPCs” value [1] was “can enhance the expression of CD184”, the “expression of CD184 relative to negative control (Mock)” value [2] was 2.6 times and the “expression of CD184 relative to positive control M344” value [2] was “comparable effects to M344”. For the same compound, the “differentiation of treated HSPCs in bone marrow, spleen and peripheral blood” value (shortened to “differentiation of treated HSPCs”) [3] was “can differentiate into T cells, myeloid cells, B cells and NK cells” and the “transplantation efficiency of cells in the bone marrow of NPG mice (hCD45+/(hCD45+ + mCD45+)×100%)” value [3] was 65.84%.
c1cc(-c2cnn3cc(-c4ccc(N5CCNCC5)cc4)cnc23)c2cccnc2c1 [LND-212854] was tested, and the “expression of CD184 in CD34+HSPCs” value [1] was “can enhance the expression of CD184”.
For CC[C@]1(O)C[C@@H]2CN(CCc3c([nH]c4ccccc34)[C@@](C(=O)OC)(c3cc4c(cc3OC)N(C)[C@H]3[C@@](O)(C(=O)OC)[C@H](OC(C)=O)[C@]5(CC)C=CCN6CC[C@]43[C@@H]65)C2)C1 [Vinblastine sulfate], the “expression of CD184 in CD34+HSPCs” value [1] was “can enhance the expression of CD184”, the “expression of CD184 relative to positive control M344” value [2] was ~2 times and the “differentiation of treated HSPCs” value [3] was “can differentiate into T cells, myeloid cells, B cells and NK cells”. For the same compound, the “transplantation efficiency of cells in the bone marrow of NPG mice (hCD45+/(hCD45+ + mCD45+)×100%)” value [3] was 80.73%.
With N#Cc1c(NC(=O)c2cccc3ccccc23)sc2c1CCCC2 [JNK-inhibitor IX] the “expression of CD184 in CD34+HSPCs” value [1] was “can enhance the expression of CD184”.
C/C(=C\c1ccc(C(=O)O)cc1)c1ccc2c(c1)C(C)(C)CCC2(C)C [TTNPB] was tested, and the “expression of CD184 in CD34+HSPCs” value [1] was “can enhance the expression of CD184”.
With COC[C@H]1Cn2cc(-c3nc(Nc4ccnn4C)ncc3C)nc2C(=O)N1Cc1ccc(F)c(F)c1 [AZD0364] the “expression of CD184 in CD34+HSPCs” value [1] was “can enhance the expression of CD184”.
With CCC[C@H](Nc1nc(-c2ccc(NC(=O)NCC)c(OC)c2)ncc1C)c1cccnc1 [Lexibulin] the “expression of CD184 in CD34+HSPCs” value [1] was “can enhance the expression of CD184”, the “expression of CD184 relative to positive control M344” value [2] was ~2 times and the “differentiation of treated HSPCs” value [3] was “can differentiate into T cells, myeloid cells, B cells and NK cells”. For the same compound, the “transplantation efficiency of cells in the bone marrow of NPG mice (hCD45+/(hCD45+ + mCD45+)×100%)” value [3] was 82.46%.
